Tested on: participants with SSc-RP
Assay: Scleroderma Health Assessment Questionnaire (SHAQ): disability indices and visual analog scales
Format: in vivo, human
Conditions: for SHAQ Standard Disability Index: Baseline, Mean / SHAQ Standard Disability Index: Baseline, Median / SHAQ Standard Disability Index: Change from Baseline (Day 12), Mean / SHAQ Standard Disability Index: Change from Baseline (Day 12), Median / SHAQ Standard Disability Index: In-Clinic Visit (Day 12), Mean / SHAQ Standard Disability Index: In-Clinic Visit (Day 12), Median / SHAQ Standard Disability Index: Percent Change from Baseline (Day 12), Mean / SHAQ Standard Disability Index: Percent Change from Baseline (Day 12), Median: PP Population, Part A, sensitivity analysis
Description: The standard, validated, patient reported outcome measures tool for SSc patients, the Scleroderma Health Assessment Questionnaire (SHAQ), will be used to assess the participant qualify of life. Details are attached in the Appendix. The participant quality of life will be scored, and a disability index calculated for each questionnaire completed by the patient at Screening and each in-clinic visit. The absolute change in participant quality of life from baseline to the end of each dosing period will be calculated similar to frequency data as before.
The SHAQ includes a Raynaud's VAS, which will be reported at screening and each in-clinic visit. The absolute change in Raynaud-VAS, assessed by the participants response to the SHAQ question ‘In the past 7 days, how much have your Raynaud's interfered with your daily activities?’ at baseline and the end of each dosing period will be calculated similar to frequency data as before.
The SHAQ is used to calculate a Disability Index to assess the participant qualify of life. The eight categories assessed by the Disability Index are 1) dressing and grooming, 2) arising, 3) eating, 4) walking, 5) hygiene, 6) reach, 7) grip, and 8) common daily activities. For each of these categories, patients report the amount of difficulty they have in performing two or three specific activities.
There are four possible responses for the Disability Index questions: • Without any difficulty=0 • With some difficulty=1 • With much difficulty=2 • Unable to do=3. • The highest score reported by the patient for any component question of the eight categories determines the score for that category. • If a component question is left blank or the response is too ambiguous to assign a score, then the score for that category is determined by the remaining completed question(s). • If all component questions are blank or if more than one answer is given, then follow up with the respondent is required. • If the respondent's mark is between the response columns, then move it to the closest one. If it's directly between the two, move it to the higher one.
Each of the disability items on the SHAQ has a companion aids/devices variable that is used to record what type(s) of assistance, if any, the participant uses for his/her usual activities. These variables (see below) are coded as follows: • 0=No assistance is needed. • 1=A special device is used by the patient in his/her usual activities. • 2=The patient usually needs help from another person. • 3=The patient usually needs BOTH a special device AND help from another person.
The scoring variables and scoring rules permit the computation of two disability indices, the Standard Disability Index and the Alternative Disability Index.
This question results in a new set of category scores that are computed by adjusting the score for each category, if necessary, based on the patient's use of an aid or device or assistance for that category. If either devices and/or help from another person are checked for a category, the score is set to “2”, unless the score is already “3” (i.e., scores of “0” or “1” are increased to “2”). For example, if the highest score for the dressing category is “1”, and the patient says they use a device for dressing, the computed category score would be “2”. The sum of the computed categories scores is then calculated and divided by the number of categories answered. This gives a score in the 0 to 3 range.
The aid and device variables are not used to calculate the alternative disability index; it is calculated by adding the scores for each of the categories and dividing by the number of categories answered. This gives a score in the 0 to 3 range.
The standard, validated, patient reported outcome measures tool for SSc patients, the SHAQ, was collected at the time points specified in the study schedules (FIG. 2 and FIGS. 4A and 4B) to assess the participant's quality of life. The SHAQ included a Raynaud's VAS that will also be reported separately.

[1] = Table C9, Pooled Cilnidipine 10 mg and Cilnidipine 10 mg + Tadalafil 5 mg
[2] = Table C9, Pooled Cilnidipine 20 mg and Cilnidipine 20 mg + Tadalafil 5 mg
[3] = Table C9, pooled cilnidipine 10 mg and 20 mg arms (plus tadalafil 5 mg where labelled)
[4] = Table C10, Pooled Cilnidipine 10 mg and Cilnidipine 10 mg + Tadalafil 5 mg
[5] = Table C10, Pooled Cilnidipine 20 mg and Cilnidipine 20 mg + Tadalafil 5 mg
[6] = Table C10, pooled cilnidipine 10 mg and 20 mg arms (plus tadalafil 5 mg where labelled)

## COCCOC(=O)C1=C(C)NC(C)=C(C(=O)OC/C=C/c2ccccc2)C1c1cccc([N+](=O)[O-])c1 (centres unmarked) [Cilnidipine, cilnidipine]
Pooled cilnidipine (4)
  SHAQ % Δ from baseline, VAS Finger Ulcers, median: −50.9%
  SHAQ % Δ from baseline, alternative disability, mean: −12.9%
  SHAQ % Δ from baseline, alternative disability, median: −22.2%
  SHAQ % Δ from baseline, standard disability, mean: −25%
  SHAQ % Δ from baseline, standard disability, median: −16.7%
Pooled cilnidipine (5)
  SHAQ % Δ from baseline, Intestinal Problems, mean: −32.4%
  SHAQ % Δ from baseline, Intestinal Problems, median: −44.1%
Pooled cilnidipine (6)
  SHAQ % Δ from baseline, VAS Overall Disease Severity, mean: −59.8%
  SHAQ % Δ from baseline, VAS Overall Disease Severity, median: −55.9%
  SHAQ % Δ from baseline, VAS Pain, mean: −31.2%
  SHAQ % Δ from baseline, VAS Pain, median: −45%
  SHAQ % Δ from baseline, VAS Raynaud's, mean: −18.6%
  SHAQ % Δ from baseline, VAS Raynaud's, median: −38.7%
[1]
  SHAQ Standard Disability Index: Baseline, Mean: 0.597
  SHAQ Standard Disability Index: Baseline, Median: 0.500
  SHAQ Standard Disability Index: Change from Baseline (Day 12), Mean: −0.021
  SHAQ Standard Disability Index: Change from Baseline (Day 12), Median: 0.000
  SHAQ Standard Disability Index: In-Clinic Visit (Day 12), Mean: 0.576
  SHAQ Standard Disability Index: In-Clinic Visit (Day 12), Median: 0.375
  SHAQ Standard Disability Index: Percent Change from Baseline (Day 12), Mean: 7.50%
  SHAQ Standard Disability Index: Percent Change from Baseline (Day 12), Median: 0.00%
[2]
  SHAQ Standard Disability Index: Baseline, Mean: 0.563
  SHAQ Standard Disability Index: Baseline, Median: 0.375
  SHAQ Standard Disability Index: Change from Baseline (Day 12), Mean: −0.065
  SHAQ Standard Disability Index: Change from Baseline (Day 12), Median: 0.000
  SHAQ Standard Disability Index: In-Clinic Visit (Day 12), Mean: 0.498
  SHAQ Standard Disability Index: In-Clinic Visit (Day 12), Median: 0.250
  SHAQ Standard Disability Index: Percent Change from Baseline (Day 12), Mean: −1.66%
  SHAQ Standard Disability Index: Percent Change from Baseline (Day 12), Median: −12.82%
[3]
  SHAQ Standard Disability Index: Baseline, Mean: 0.500
  SHAQ Standard Disability Index: Baseline, Median: 0.375
  SHAQ Standard Disability Index: Change from Baseline (Day 12), Mean: −0.031
  SHAQ Standard Disability Index: Change from Baseline (Day 12), Median: 0.000
  SHAQ Standard Disability Index: In-Clinic Visit (Day 12), Mean: 0.469
  SHAQ Standard Disability Index: In-Clinic Visit (Day 12), Median: 0.188
  SHAQ Standard Disability Index: Percent Change from Baseline (Day 12), Mean: −16.00%
  SHAQ Standard Disability Index: Percent Change from Baseline (Day 12), Median: 0.00%
[4]
  SHAQ Standard Disability Index: Baseline, Mean: 0.597
  SHAQ Standard Disability Index: Baseline, Median: 0.500
  SHAQ Standard Disability Index: Change from Baseline (Day 12), Mean: −0.021
  SHAQ Standard Disability Index: Change from Baseline (Day 12), Median: 0.000
  SHAQ Standard Disability Index: In-Clinic Visit (Day 12), Mean: 0.576
  SHAQ Standard Disability Index: In-Clinic Visit (Day 12), Median: 0.375
  SHAQ Standard Disability Index: Percent Change from Baseline (Day 12), Mean: 7.50%
  SHAQ Standard Disability Index: Percent Change from Baseline (Day 12), Median: 0.00%
[5]
  SHAQ Standard Disability Index: Baseline, Mean: 0.563
  SHAQ Standard Disability Index: Baseline, Median: 0.375
  SHAQ Standard Disability Index: Change from Baseline (Day 12), Mean: −0.065
  SHAQ Standard Disability Index: Change from Baseline (Day 12), Median: 0.000
  SHAQ Standard Disability Index: In-Clinic Visit (Day 12), Mean: 0.498
  SHAQ Standard Disability Index: In-Clinic Visit (Day 12), Median: 0.250
  SHAQ Standard Disability Index: Percent Change from Baseline (Day 12), Mean: −1.66%
  SHAQ Standard Disability Index: Percent Change from Baseline (Day 12), Median: −12.82%
[6]
  SHAQ Standard Disability Index: Baseline, Mean: 0.500
  SHAQ Standard Disability Index: Baseline, Median: 0.375
  SHAQ Standard Disability Index: Change from Baseline (Day 12), Mean: −0.031
  SHAQ Standard Disability Index: Change from Baseline (Day 12), Median: 0.000
  SHAQ Standard Disability Index: In-Clinic Visit (Day 12), Mean: 0.469
  SHAQ Standard Disability Index: In-Clinic Visit (Day 12), Median: 0.188
  SHAQ Standard Disability Index: Percent Change from Baseline (Day 12), Mean: −16.00%
  SHAQ Standard Disability Index: Percent Change from Baseline (Day 12), Median: 0.00%
Pooled cilnidipine patients, 10 mg or 20 mg (n=7)
  mean decrease in patient reported disease severity on the SHAQ: 60%

— US20240358693A1, “METHODS OF TREATING PAIN” (Aisa Pharma, Inc., priority 2023, published 2024)
